“And” between values parts separate entries of the source, which are not always exact repeats. Identical values can stand only once.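 Dose response: 5 concentrations. Exposure: 48 h. Format: 96-well plates. Endpoint: linear interpolation; highest concentration if not reached. At the GI50, growth is halved. Definition used: TGI = concentration required for complete inhibition of growth.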
Assays:
Test in all cases: DTP human tumour cell line panel, 48 h
HL-60(TB) leukemia = system: HL-60(TB) leukemia
HOP-62 NSCLC = system: HOP-62 NSCLC
MCF7 breast = system: MCF7 breast
NCI-H23 lung = system: NCI-H23 lung
NCI-H460 lung = system: NCI-H460 lung
NCI/ADR-RES ovarian = system: NCI/ADR-RES ovarian
T-47D breast = system: T-47D breast
TK-10 renal = system: TK-10 renal

| Compound | GI50 (HL-60(TB) leukemia) | TGI (HL-60(TB) leukemia) | GI50 (HOP-62 NSCLC) | TGI (HOP-62 NSCLC) | GI50 (MCF7 breast) | TGI (MCF7 breast) | GI50 (NCI-H23 lung) | TGI (NCI-H23 lung) | GI50 (NCI-H460 lung) | GI50 (NCI/ADR-RES ovarian) | TGI (NCI/ADR-RES ovarian) | GI50 (T-47D breast) | TGI (T-47D breast) | GI50 (TK-10 renal) | TGI (TK-10 renal) | TGI (NCI-H460 lung) |
| --- | --- | --- | --- | --- | --- | --- | --- | --- | --- | --- | --- | --- | --- | --- | --- | --- |
| COc1ccc(C(=O)c2cc3c(N)c(C(=O)Nc4cccc(Br)c4C)sc3nc2C)cc1 | 0.0282 µM | 0.0954 µM | 0.0729 µM | > 100 µM | 0.0396 µM | > 100 µM | 0.354 µM | > 100 µM | 0.0962 µM | 0.0402 µM | > 100 µM | 50.4 µM | > 100 µM | 36.4 µM | > 100 µM | – |
| CC[C@H](C)[C@H](NC(=O)[C@H]1CCCCN1C)C(=O)N(C)[C@H](C[C@@H](OC(C)=O)c1cccc(C(=O)N[C@@H](Cc2ccccc2)C[C@H](C)C(=O)O)n1)C(C)C | 0.00111 µM and < 0.0025 µM | 0.00592 µM and < 0.0025 µM | 0.00275 µM and 0.0025 µM | > 25 µM | 0.000341 µM and 0.0025 µM | > 25 µM | 0.00356 µM and 0.0025 µM | > 25 µM | 0.00278 µM and 0.0025 µM | 0.0584 µM and 0.00946 µM | > 25 µM | 0.00136 µM | – | – | > 25 µM | > 25 µM |
| COc1ccc(C2C(C#N)=C(N)Oc3c2sc2c(Br)cccc32)cc1 (centres undefined) | 1.12 µM | 3.73 µM | 4.48 µM | 17.5 µM | 0.467 µM | 12 µM | 2.64 µM | 14.2 µM | 2.08 µM | 0.767 µM | 4.26 µM | 3.13 µM | 15 µM | 8.48 µM | 22.2 µM | 21.9 µM |
| COc1ccccc1/C=C\C(=O)C1COCN1 (centres undefined) | – | > 100 µM | – | 57.4 µM | – | 36.8 µM | – | > 100 µM | – | – | 52.3 µM | – | 20.7 µM | – | 50.8 µM | > 100 µM |
| OC1CCCC2CCC[N-]C12.OC1CCCC2CCC[N-]C12.[O]=[V][OH] (centres undefined) | 2.61 µM | 8.4 µM | 7.15 µM | > 100 µM | 2.87 µM | 10.1 µM | 7.22 µM | 52.6 µM | 5.49 µM | 2.82 µM | 15.1 µM | 0.825 µM | 26.6 µM | 44.9 µM | > 100 µM | > 100 µM |
| CCOc1ccc(C(C[N+](=O)[O-])Sc2ccccc2N)cc1 (centres undefined) | 2.27 µM | 6.59 µM | 18.3 µM | 32.3 µM | 1.71 µM | 6.04 µM | 8.71 µM | 21.6 µM | 10.2 µM | 14.3 µM | 28.1 µM | 6.77 µM | 25.3 µM | 15.4 µM | 29.2 µM | 27 µM |
| O=C(Nc1cc(Cl)ccc1O)c1ccccc1Nc1ccnc(C(F)(F)F)c1 | 1.46 µM | 4.36 µM | 2.16 µM | 5.21 µM | 2.75 µM | 11.6 µM | 2.63 µM | 9.19 µM | 2.99 µM | 3.06 µM | 9.29 µM | 2.47 µM | 8.5 µM | 4.72 µM | 16.8 µM | 9.92 µM |
| Clc1cccc(CNc2c3ccccc3nc3ccccc23)c1 | 1.9 µM | 4.35 µM | 2.77 µM | 12.4 µM | 1.62 µM | 3.53 µM | 1.73 µM | 4.93 µM | 1.95 µM | 1.8 µM | 4.97 µM | 2 µM | 5.06 µM | 2.95 µM | 8.99 µM | 4.2 µM |
| O=C(NCCOCCOCCOCCNC(=O)c1cc2c(o1)C(=O)c1ccccc1C2=O)NC12CC3CC(CC(C3)C1)C2 | 2.16 µM | 6.46 µM | 2.03 µM | 3.53 µM | 1.16 µM | 3.22 µM | 0.234 µM | 1.97 µM | 1.19 µM | 2.96 µM | 10.1 µM | 1.59 µM | 6.02 µM | 3.68 µM | 7.24 µM | 2.93 µM |
| CN(C)Cc1ccc(NC(=O)c2cncc(C#Cc3cnc(N)c4ncccc34)c2)cc1F | 7.33 µM | 35.7 µM | 13.4 µM | 42.8 µM | 1.66 µM | 3.45 µM | 13.7 µM | 34 µM | 1.93 µM | 2.2 µM | 4.54 µM | 10.3 µM | 54.7 µM | 14.5 µM | 34.9 µM | 3.63 µM |
| CCCCOc1ccc(/C=N/Nc2cc(C)nc3ccc(Br)cc23)cc1 | 2.02 µM | 4.07 µM | 1.47 µM | 2.94 µM | 1.83 µM | 3.68 µM | 1.86 µM | 3.76 µM | 2.08 µM | 1.96 µM | 3.85 µM | 1.69 µM | 3.6 µM | 1.91 µM | 3.31 µM | 4.06 µM |
| COc1ccccc1[As]=[As]c1ccccc1OC (centres undefined) | 0.0492 µM | 0.262 µM | 0.05 µM | 0.164 µM | 0.021 µM | 0.0604 µM | 0.0653 µM | 0.204 µM | 0.096 µM | 0.0763 µM | 0.306 µM | 0.0366 µM | 0.199 µM | 0.0401 µM | 0.141 µM | 0.334 µM |
| O=C(Nc1cc(F)c(F)cc1C(=O)O)c1ccc(-n2ccnc2)nn1 | 38.9 µM | > 100 µM | > 100 µM | > 100 µM | > 100 µM | > 100 µM | > 100 µM | > 100 µM | > 100 µM | > 100 µM | > 100 µM | > 100 µM | > 100 µM | > 100 µM | > 100 µM | > 100 µM |
| COc1ccc2c(O)c(/C=C3\N=Nc4ncccc43)oc2c1C[C@@H]1CCNC[C@H]1F | 0.314 µM | 1.14 µM | 0.336 µM | 2.94 µM | 0.118 µM | 1.09 µM | 0.861 µM | 3.51 µM | 0.617 µM | 0.915 µM | 4.31 µM | 2.32 µM | 11.8 µM | 2.11 µM | 5.91 µM | 2.05 µM |
| CS(=O)(=O)c1cccc(Nc2ncc3cc(-c4ccccc4Cl)ccc3n2)c1 | 1.36 µM | > 33.3 µM | 1.3 µM | > 33.3 µM | 1.37 µM | > 33.3 µM | 1.98 µM | > 33.3 µM | 1.22 µM | 1.24 µM | 17.7 µM | 1.1 µM | > 33.3 µM | 1.9 µM | 17.3 µM | 25.8 µM |

Source: PubChem BioAssay (NCI)
